19 molecules from patent publication US12624044B2, “SMARCA degraders and uses thereof” (Kymera Therapeutics, Inc., priority 2019, dated 2026) can be followed below.

One test deals with SMARCA2 (Homo sapiens, UniProt P51531). The test can be described thus: MSD SMARCA2 degradation in A549 cell line. It counts as cell-based. The conditions noted are these: 24 h; for Dmax: A549, A549 cells; for DC50: A549 cells, read-out: SMARCA2 MSD A549 degradation 24 h: Average external-Abs DC50. The method, boiled down: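 A549 cells treated 24 h with compound at final 0.152-1000 nM (3-fold series, DMSO control). Lysates analyzed by MSD immunoassay using anti-SMARCA2/BRM detection and SULFO-TAG secondary antibodies; maximal degradation (Dmax %) reported as letter bins.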
Chain of SMARCA2 (P51531 whole entry): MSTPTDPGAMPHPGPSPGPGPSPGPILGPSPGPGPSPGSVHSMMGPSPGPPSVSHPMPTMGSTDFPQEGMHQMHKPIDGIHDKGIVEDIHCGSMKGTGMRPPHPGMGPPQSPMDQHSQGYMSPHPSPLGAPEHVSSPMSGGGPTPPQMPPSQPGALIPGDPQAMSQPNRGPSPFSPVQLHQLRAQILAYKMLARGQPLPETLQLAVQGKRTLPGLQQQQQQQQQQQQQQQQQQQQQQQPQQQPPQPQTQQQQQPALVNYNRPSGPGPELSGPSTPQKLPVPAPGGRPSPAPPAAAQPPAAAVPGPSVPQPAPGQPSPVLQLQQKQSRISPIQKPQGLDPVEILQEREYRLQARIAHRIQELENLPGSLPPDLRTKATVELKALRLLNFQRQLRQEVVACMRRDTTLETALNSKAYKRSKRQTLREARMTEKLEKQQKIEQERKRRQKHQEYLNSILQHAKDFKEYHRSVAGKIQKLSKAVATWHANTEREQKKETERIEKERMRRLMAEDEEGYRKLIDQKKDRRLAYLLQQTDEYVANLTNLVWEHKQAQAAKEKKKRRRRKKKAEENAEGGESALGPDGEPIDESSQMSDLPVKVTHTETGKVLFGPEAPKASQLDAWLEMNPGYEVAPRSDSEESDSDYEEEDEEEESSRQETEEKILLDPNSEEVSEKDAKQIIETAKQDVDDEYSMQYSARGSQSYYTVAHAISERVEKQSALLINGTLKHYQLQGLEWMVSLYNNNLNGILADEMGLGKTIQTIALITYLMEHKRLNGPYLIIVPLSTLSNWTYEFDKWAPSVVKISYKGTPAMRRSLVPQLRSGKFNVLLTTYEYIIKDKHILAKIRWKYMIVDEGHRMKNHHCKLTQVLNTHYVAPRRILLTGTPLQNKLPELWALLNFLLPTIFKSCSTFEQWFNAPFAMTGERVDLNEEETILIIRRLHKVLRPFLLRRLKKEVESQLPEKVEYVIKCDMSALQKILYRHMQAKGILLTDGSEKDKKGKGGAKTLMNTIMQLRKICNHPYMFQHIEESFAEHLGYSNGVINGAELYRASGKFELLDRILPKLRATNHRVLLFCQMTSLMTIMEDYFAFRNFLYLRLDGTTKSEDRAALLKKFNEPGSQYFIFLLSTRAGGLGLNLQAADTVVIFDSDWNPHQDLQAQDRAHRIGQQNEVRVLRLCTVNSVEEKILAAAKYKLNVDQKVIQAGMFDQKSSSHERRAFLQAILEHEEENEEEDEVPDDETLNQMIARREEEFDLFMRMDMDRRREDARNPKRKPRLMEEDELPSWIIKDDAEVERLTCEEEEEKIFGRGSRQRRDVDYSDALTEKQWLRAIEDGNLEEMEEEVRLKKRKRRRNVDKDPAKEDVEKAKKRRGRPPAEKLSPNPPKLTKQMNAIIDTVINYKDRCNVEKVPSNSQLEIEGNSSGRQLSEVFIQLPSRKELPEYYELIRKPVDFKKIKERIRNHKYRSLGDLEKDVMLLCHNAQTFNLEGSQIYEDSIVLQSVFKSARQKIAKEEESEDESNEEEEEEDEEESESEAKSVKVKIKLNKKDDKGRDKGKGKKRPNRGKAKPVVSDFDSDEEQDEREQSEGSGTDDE

The target of a further test is T1, SMARCA4 (Homo sapiens, UniProt P51532).
T1 construct: SMARCA2 and SMARCA4 protein degradation in MV4-11 cells; endogenous in cells; host or cells: MV4-11
T1 sequence (P51532 whole entry): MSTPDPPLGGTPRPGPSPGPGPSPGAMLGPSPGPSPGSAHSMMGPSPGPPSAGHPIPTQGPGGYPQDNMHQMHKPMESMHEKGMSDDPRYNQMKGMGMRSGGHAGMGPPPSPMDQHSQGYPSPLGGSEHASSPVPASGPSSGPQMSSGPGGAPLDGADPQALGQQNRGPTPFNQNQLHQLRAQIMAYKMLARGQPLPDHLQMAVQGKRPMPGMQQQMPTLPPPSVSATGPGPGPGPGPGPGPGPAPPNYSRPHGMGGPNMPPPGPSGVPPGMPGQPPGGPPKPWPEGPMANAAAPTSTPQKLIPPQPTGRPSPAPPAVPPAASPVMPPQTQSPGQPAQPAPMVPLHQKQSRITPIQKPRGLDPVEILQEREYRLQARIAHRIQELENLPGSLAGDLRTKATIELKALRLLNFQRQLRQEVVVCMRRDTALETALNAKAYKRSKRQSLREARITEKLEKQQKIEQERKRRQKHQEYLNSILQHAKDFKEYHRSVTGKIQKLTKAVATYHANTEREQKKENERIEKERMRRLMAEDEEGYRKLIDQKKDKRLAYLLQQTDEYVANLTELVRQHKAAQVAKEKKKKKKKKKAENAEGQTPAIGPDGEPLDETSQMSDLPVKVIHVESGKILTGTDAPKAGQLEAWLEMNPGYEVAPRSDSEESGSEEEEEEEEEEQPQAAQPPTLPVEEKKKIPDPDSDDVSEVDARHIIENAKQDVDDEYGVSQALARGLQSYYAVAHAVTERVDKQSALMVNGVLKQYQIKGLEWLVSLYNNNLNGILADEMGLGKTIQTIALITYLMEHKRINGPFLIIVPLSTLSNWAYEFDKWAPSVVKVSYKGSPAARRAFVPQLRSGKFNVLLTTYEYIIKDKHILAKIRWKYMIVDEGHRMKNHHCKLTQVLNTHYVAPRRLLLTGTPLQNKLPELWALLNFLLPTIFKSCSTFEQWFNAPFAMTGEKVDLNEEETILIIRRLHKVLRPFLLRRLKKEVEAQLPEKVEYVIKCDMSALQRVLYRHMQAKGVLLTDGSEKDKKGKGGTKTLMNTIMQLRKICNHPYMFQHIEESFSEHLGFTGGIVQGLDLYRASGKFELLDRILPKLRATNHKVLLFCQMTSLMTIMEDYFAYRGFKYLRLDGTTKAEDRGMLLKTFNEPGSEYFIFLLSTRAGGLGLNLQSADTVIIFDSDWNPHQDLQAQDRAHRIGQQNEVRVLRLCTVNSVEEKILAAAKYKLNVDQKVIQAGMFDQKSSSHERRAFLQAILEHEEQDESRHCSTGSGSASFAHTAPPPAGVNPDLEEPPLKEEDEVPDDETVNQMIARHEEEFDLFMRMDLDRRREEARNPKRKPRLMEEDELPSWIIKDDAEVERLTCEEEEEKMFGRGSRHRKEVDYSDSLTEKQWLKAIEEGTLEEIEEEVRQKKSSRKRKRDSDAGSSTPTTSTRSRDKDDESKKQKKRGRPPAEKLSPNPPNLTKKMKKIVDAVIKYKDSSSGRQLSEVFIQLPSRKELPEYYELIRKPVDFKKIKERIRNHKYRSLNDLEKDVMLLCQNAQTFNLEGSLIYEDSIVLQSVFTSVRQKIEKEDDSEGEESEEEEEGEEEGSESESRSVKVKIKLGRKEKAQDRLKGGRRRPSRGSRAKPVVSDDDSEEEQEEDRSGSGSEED
The test is described as follows: SMARCA4 Western blot MV4-11 degradation. It counts as cell-based. The conditions noted are these: 24 h; for Dmax: MV4-11, MV4-11 cells, read-out: SMARCA4 WB MV411 degradation 24 h: Average Dmax %; for DC50: MV4-11 cells, read-out: SMARCA4 WB MV411 degradation 24 h: Average external-Abs DC50. The procedure:
Cells were seeded into 6-well plates (MV4-11: 4×10^6 cells/well/1 ml) and 1 ml of 2× compound solution was added into the well to make the final concentration and the plates were mixed well and incubated for 24 hours (No cytotoxicity was observed). The cell were collected with media and spun at 3000 rpm for 5 minutes. The supernatant was aspirated and the well and the cells were washed with cold PBS once and combined for centrifugation again; the supernatant aspirated again. 200 ul pre-chilled RIPAlysis buffer (Boston BioProducts BP-115D) with protease/phosphatase inhibitor (Roche 05892791001/Roche 04906837001) was directly added into the tube to lyze the cells for 20 minutes on ice. The cell lysate were collected into EP tubes and spun at 13000 rpm for 20 minutes and 72 ul supernatant was transferred to a fresh EP tube containing 18 ul of 5× loading buffer (Beyotime Bio P0015) to make the loading samples. The samples were heated to 100° C. for 10 minutes and cooled to RT and microcentrifuged. 20 ul of samples were loaded onto SDS-PAGE gel (Novex, WG1402BOX) and the gel was run at 80 V for 20 minutes and 120 V for 1.5 hours. The samples were electrotransfer to a NC membrane using wet-transfer method with 250 mA for 2.5 hours. The membrane was blocked with LICOR blocking buffer (LI-COR, 927-50000) for 1 hour. The membrane was washed three times with TBST (CST #9997S), 5 minutes each. Incubation was performed with primary antibody prepared in blocking buffer with 0.1% Tween-20 (Solarbio, P8220) at 4° C. overnight (Anti-SMARCA2/BRM antibody (ab15597) 1:500; Anti-BRG1 antibody [EPR3912] (ab108318) 1:1000; Rabbit anti-Baf180 antibody [EPR15860] (Abcam, ab196022) 1:1000; mouse anti-beta-Actin (8H10D10) (CST #3700) 1:10000). The membrane was washed three times with TBST, 5 minutes each. Incubation with secondary antibody was performed for 1 hour at RT (anti-rabbit IgG (Licor, 926-32211) 1:5000; anti-mouse IgG (LI-COR, 926-68070) 1:5000). The membrane was washed three times with TBST, 5 minutes each and lastly the LiCOR was read.
The letter codes for the percentage of SMARCA degradation after 24 hours (Dmax %) include: A (>90% degradation), B (>70-90% degradation), C (50-70% degradation), and D (<50% degradation).

Turning to `Cn1c(=O)n(C2CCC(=O)NC2=O)c2ccc([C@H]3CC[C@H](N4CCC(c5nccc(N6C7CCC6CN(c6cc(-c8ccccc8O)nnc6N)C7)n5)CC4)CC3)cc21` (stereo partly shown) [I-280, 3-(5-((1r,4r)-4-(4-(4-(3-(3-amino-6-(2-hydroxyphenyl)pyridazin-4-yl)-3,8-diazabicyclo[3.2.1]octan-8-yl)pyrimidin-2-yl)piperidin-1-yl)cyclohexyl)-3-methyl-2-oxo-2,3-dihydro-1H-benzo[d]imidazol-1-yl)piperidine-2,6-dione], at SMARCA2, the Dmax (in general, the largest share of the target that was removed) was more than 90% and the DC50 (usually the midpoint of the concentration-degradation curve) was less than 100 nM. Besides, on SMARCA4, the Dmax was more than 90% and the DC50 was less than 100 nM.

Regarding `Nc1nnc(-c2ccccc2O)cc1-c1cnn(C2CCN([C@H]3CC[C@@H](CNc4ccc5c(c4)C(=O)N(C4CCC(=O)NC4=O)C5=O)CC3)CC2)c1` (stereo partly shown) [I-281, 5-((((1s,4s)-4-(4-(4-(3-amino-6-(2-hydroxyphenyl)pyridazin-4-yl)-1H-pyrazol-1-yl)piperidin-1-yl)cyclohexyl)methyl)amino)-2-(2,6-dioxopiperidin-3-yl)isoindoline-1,3-dione], the Dmax on SMARCA2 and at SMARCA4 was more than 90% throughout. Also, the DC50 on SMARCA2 and on SMARCA4 was less than 100 nM in each case.

With `Nc1nnc(-c2ccccc2O)cc1-c1cnn(C2CCN(C3CCC(Nc4cccc5c4C(=O)N(C4CCC(=O)NC4=O)C5=O)CC3)CC2)c1` (stereo not shown) [I-322], on SMARCA2, the Dmax is more than 90% and the DC50 is less than 100 nM. Further, at SMARCA4, the Dmax was more than 90% and the DC50 is less than 100 nM.

As for `Nc1nnc(-c2ccccc2O)cc1-c1cnn(C2CCN(C3CCC(Nc4ccc5c(c4)C(=O)N(C4CCC(=O)NC4=O)C5=O)CC3)CC2)c1` (stereo not shown) [I-323], at SMARCA2, the Dmax is more than 90% and the DC50 was less than 100 nM. Besides, on SMARCA4, the Dmax was more than 90% and the half-maximal degradation concentration (DC50) was less than 100 nM.

Consider `Nc1nnc(-c2ccccc2O)cc1-c1cnn(C2CCN(C3CCC(CNc4cccc5c4C(=O)N(C4CCC(=O)NC4=O)C5=O)CC3)CC2)c1` (stereo not shown) [I-324], for which, on SMARCA2, the Dmax lay within 70 to 90% and the DC50 is less than 100 nM. Moreover, on SMARCA4, the Dmax fell in the range of 70 to 90% and the DC50 is less than 100 nM.

As to `Nc1nnc(-c2ccccc2O)cc1-c1cnn(C2CCN([C@H]3CC[C@H](CNc4ccc5c(c4)C(=O)N(C4CCC(=O)NC4=O)C5=O)CC3)CC2)c1` (stereo partly shown) [I-325, 5-((((1r,4r)-4-(4-(4-(3-amino-6-(2-hydroxyphenyl)pyridazin-4-yl)-1H-pyrazol-1-yl)piperidin-1-yl)cyclohexyl)methyl)amino)-2-(2,6-dioxopiperidin-3-yl)isoindoline-1,3-dione], on SMARCA2, the Dmax lay in the range of 70 to 90% and the half-maximal degradation concentration (DC50) is less than 100 nM. In addition, on SMARCA4, the Dmax fell in the range of 70 to 90% and the DC50 was less than 100 nM.

Regarding `COc1ccccc1-c1cc(N2CC3CCC(C2)N3c2ncc(C3CCN(CCCc4ccc5c(c4)n(C)c(=O)n5C4CCC(=O)NC4=O)CC3)cn2)c(N)nn1` (stereo not shown) [I-326], on SMARCA2, the maximal degradation (Dmax) was less than 50% and the DC50 was more than 1000 nM. Besides, at SMARCA4, the Dmax was 50 to 70% and the DC50 is 100 to 500 nM.

For `Cc1ncsc1-c1ccc(CNC(=O)[C@@H]2C[C@@H](O)CN2C(=O)[C@@H](NC(=O)C[C@H]2CC[C@H](N3CCC(n4cc(-c5cc(-c6ccccc6O)nnc5N)cn4)CC3)CC2)C(C)(C)C)cc1` [I-328], at SMARCA2, the Dmax is more than 90% and the DC50 is 100 to 500 nM. Also, at SMARCA4, the Dmax was more than 90% and the DC50 was less than 100 nM.

On to `Cc1ncsc1-c1ccc(CNC(=O)[C@@H]2C[C@@H](O)CN2C(=O)[C@@H](NC(=O)C2CC3(C2)CC(N2CCC(n4cc(-c5cc(-c6ccccc6O)nnc5N)cn4)CC2)C3)C(C)(C)C)cc1` (stereo partly shown) [I-329], for which the greatest degradation seen (Dmax) on SMARCA2 and at SMARCA4 was more than 90% throughout. In addition, the DC50 at SMARCA2 is 100 to 500 nM; at SMARCA4, less than 100 nM.

For `Cc1ncsc1-c1ccc(CNC(=O)[C@@H]2C[C@@H](O)CN2C(=O)[C@@H](NC(=O)CCCCCC2CCC(N3CCC(Cn4cc(-c5cc(-c6ccccc6O)nnc5N)cn4)CC3)CC2)C(C)(C)C)cc1` (stereo partly shown) [I-330], the results for the Dmax at SMARCA2 and at SMARCA4 were more than 90% and 70 to 90%, respectively. Moreover, the results for the DC50 on SMARCA2 and on SMARCA4 were 100 to 500 nM and less than 100 nM, respectively.

On to `COc1ccccc1-c1cc(N2CC3CCC(C2)N3c2ncc([C@H]3CC[C@@H](CC(=O)N[C@H](C(=O)N4C[C@H](O)C[C@H]4C(=O)NCc4ccc(-c5scnc5C)cc4)C(C)(C)C)CC3)cn2)c(N)nn1` [I-331], for which, at SMARCA2, the Dmax is more than 90% and the DC50 lay within 100 to 500 nM. Also, on SMARCA4, the Dmax is more than 90% and the DC50 is less than 100 nM.

On to `Cc1ncsc1-c1ccc(CNC(=O)[C@@H]2C[C@@H](O)CN2C(=O)[C@@H](NC(=O)C[C@H]2CC[C@H](c3cnc(N4C5CCC4CN(c4cc(-c6ccccc6O)nnc4N)C5)nc3)CC2)C(C)(C)C)cc1` [I-332], for which, on SMARCA2, the Dmax is more than 90% and the DC50 is less than 100 nM. In addition, on SMARCA4, the Dmax is more than 90% and the DC50 was less than 100 nM.

Turning to `Cc1ncsc1-c1ccc(CNC(=O)[C@@H]2C[C@@H](O)CN2C(=O)[C@@H](NC(=O)N[C@H]2CC[C@H](c3cnc(N4C5CCC4CN(c4cc(-c6ccccc6O)nnc4N)C5)nc3)CC2)C(C)(C)C)cc1` [I-333], on SMARCA2, the Dmax is less than 50% and the DC50 is more than 1000 nM. Also, at SMARCA4, the Dmax was more than 90% and the DC50 is less than 100 nM.

Take `Cc1ncsc1-c1ccc(CNC(=O)[C@@H]2C[C@@H](O)CN2C(=O)[C@@H](NC(=O)N[C@H]2CC[C@@H](c3cnc(N4C5CCC4CN(c4cc(-c6ccccc6O)nnc4N)C5)nc3)CC2)C(C)(C)C)cc1` [I-334]: on SMARCA2, the Dmax fell in the range of 70 to 90% and the DC50 was 501 to 1000 nM. For the same molecule, on SMARCA4, the Dmax is more than 90% and the DC50 was less than 100 nM.

Consider `Cc1ncsc1-c1ccc(CNC(=O)[C@@H]2C[C@@H](O)CN2C(=O)[C@@H](NC(=O)Cc2ccc(-c3cnc(N4C5CCC4CN(c4cc(-c6ccccc6O)nnc4N)C5)nc3)cc2)C(C)(C)C)cc1` [I-335], for which, at SMARCA2, the Dmax was more than 90% and the DC50 is less than 100 nM. On SMARCA4, the Dmax is more than 90% and the DC50 was less than 100 nM.

`Cc1ncsc1-c1ccc(CNC(=O)[C@@H]2C[C@@H](O)CN2C(=O)[C@@H](NC(=O)C2CCN(Cc3cnc(N4C5CCC4CN(c4cc(-c6ccccc6O)nnc4N)C5)nc3)CC2)C(C)(C)C)cc1` [I-338]: on SMARCA2, the Dmax is more than 90% and the DC50 was in the range of 100 to 500 nM. On SMARCA4, the Dmax is more than 90% and the DC50 was less than 100 nM.

For `Cc1ncsc1-c1ccc(CNC(=O)[C@@H]2C[C@@H](O)CN2C(=O)[C@@H](NC(=O)N2CCN(Cc3cnc(N4C5CCC4CN(c4cc(-c6ccccc6O)nnc4N)C5)nc3)CC2)C(C)(C)C)cc1` [I-339], on SMARCA2, the Dmax is 70 to 90% and the DC50 was in the range of 100 to 500 nM. On SMARCA4, the Dmax was more than 90% and the DC50 is less than 100 nM.

`Cc1ncsc1-c1ccc(CNC(=O)[C@@H]2C[C@@H](O)CN2C(=O)[C@@H](NC(=O)COCC#Cc2cnc(N3C4CCC3CN(c3cc(-c5ccccc5O)nnc3N)C4)nc2)C(C)(C)C)cc1` [I-340]: at SMARCA2, the Dmax was more than 90% and the DC50 was in the range of 100 to 500 nM. Also, at SMARCA4, the maximal degradation (Dmax) is more than 90% and the DC50 was less than 100 nM.

For `Cc1ncsc1-c1ccc(CNC(=O)[C@@H]2C[C@@H](O)CN2C(=O)[C@@H](NC(=O)CCCC#Cc2cnc(N3C4CCC3CN(c3cc(-c5ccccc5O)nnc3N)C4)nc2)C(C)(C)C)cc1` [I-341], on SMARCA2, the Dmax is more than 90% and the DC50 was 100 to 500 nM. Also, at SMARCA4, the Dmax is more than 90% and the DC50 was less than 100 nM.
